Where two headings read alike, the source gives them in different places.
How the values were obtained:
[1] = for hygroscopicity (absorption or adsorption of water molecules from the surrounding environment): result in words
Procedure: Moreover, crystalline benzoic acid salt of Formula I may also be characterized by its dynamic vapor sorption (DVS) water vapor sorption and desorption isotherms measured at 25° C. Before starting the sorption cycle the crystalline salt of Formula I sample is treated with dry nitrogen gas.
Moisture sorption/desorption isotherms were recorded on a DVS-1000 from Surface Measurement Systems. […] Typical total measurement times for both cycles were about 20 to 30 hours.

[2] = target: free factor Xa (Homo sapiens, UniProt P00742); details: cited from earlier work
[3] = target: factor Xa assembled in the prothrombinase complex (Factor Xa, Factor Va, calcium and phospholipid) (Homo sapiens, UniProt P00742); details: cited from earlier work
[4] = tested on: models of thrombosis; details: rodent, canine and porcine models; cited from earlier work
[5] = tested on: acute coronary syndrome; details: humans, recent clinical findings; cited from earlier work
[6] = tested on: prothrombin fragments 1+2; details: highest dose regimen, versus unfractionated heparin; cited from earlier work
[7] = target: T1, factor Xa (Homo sapiens, UniProt P00742); details: patients with stable coronary artery disease on usual comedication, some with mild renal impairment; cited from earlier work
T1 construct: from tissue; host or cells: blood of patients (in vivo; result quoted from Hinder et al. 2006)
T1 sequence (P00742 235-488 limits assumed): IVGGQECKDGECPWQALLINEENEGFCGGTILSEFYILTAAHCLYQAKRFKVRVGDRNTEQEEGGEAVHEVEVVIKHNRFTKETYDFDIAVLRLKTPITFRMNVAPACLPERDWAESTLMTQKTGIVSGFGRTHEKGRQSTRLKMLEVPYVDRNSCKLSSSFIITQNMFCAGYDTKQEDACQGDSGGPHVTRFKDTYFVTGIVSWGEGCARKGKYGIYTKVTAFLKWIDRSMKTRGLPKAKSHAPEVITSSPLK
T1 sequence (P00742 41-179 partner limits assumed): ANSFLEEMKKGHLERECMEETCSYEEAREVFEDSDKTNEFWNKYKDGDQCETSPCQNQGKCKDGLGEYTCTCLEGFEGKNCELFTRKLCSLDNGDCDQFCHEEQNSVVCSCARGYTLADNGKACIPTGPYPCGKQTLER

Sequence of free factor Xa (P00742 235-488 limits assumed): as the sequence (P00742 235-488 limits assumed) above
Sequence of free factor Xa (P00742 41-179 partner limits assumed): as the sequence (P00742 41-179 partner limits assumed) above
Sequence of factor Xa assembled in the prothrombinase complex (Factor Xa, Factor Va, calcium and phospholipid) (P00742 235-488 limits assumed): as the sequence (P00742 235-488 limits assumed) above
Sequence of factor Xa assembled in the prothrombinase complex (Factor Xa, Factor Va, calcium and phospholipid) (P00742 41-179 partner limits assumed): as the sequence (P00742 41-179 partner limits assumed) above
Sequence of factor Xa assembled in the prothrombinase complex (Factor Xa, Factor Va, calcium and phospholipid) (P12259 29-737 partner limits assumed): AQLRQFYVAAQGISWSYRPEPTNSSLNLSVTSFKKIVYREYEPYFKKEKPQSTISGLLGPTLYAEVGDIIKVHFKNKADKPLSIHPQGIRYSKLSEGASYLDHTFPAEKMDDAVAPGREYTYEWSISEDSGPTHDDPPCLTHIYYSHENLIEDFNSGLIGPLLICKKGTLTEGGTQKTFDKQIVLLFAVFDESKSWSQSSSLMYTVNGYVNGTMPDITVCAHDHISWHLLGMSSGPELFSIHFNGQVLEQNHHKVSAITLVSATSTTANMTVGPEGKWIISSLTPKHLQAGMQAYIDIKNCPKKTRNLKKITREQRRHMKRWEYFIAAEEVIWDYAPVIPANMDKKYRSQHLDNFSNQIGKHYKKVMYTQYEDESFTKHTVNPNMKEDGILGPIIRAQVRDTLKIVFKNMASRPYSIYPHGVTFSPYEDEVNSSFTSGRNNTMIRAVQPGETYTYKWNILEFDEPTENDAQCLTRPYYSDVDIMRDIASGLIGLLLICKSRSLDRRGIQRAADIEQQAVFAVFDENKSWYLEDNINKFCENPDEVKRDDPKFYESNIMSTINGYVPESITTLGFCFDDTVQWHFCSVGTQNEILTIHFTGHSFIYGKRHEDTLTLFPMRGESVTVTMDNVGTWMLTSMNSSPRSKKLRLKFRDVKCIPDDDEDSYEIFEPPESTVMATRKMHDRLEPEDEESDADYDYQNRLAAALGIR
Sequence of factor Xa assembled in the prothrombinase complex (Factor Xa, Factor Va, calcium and phospholipid) (P12259 1574-2224 partner limits assumed): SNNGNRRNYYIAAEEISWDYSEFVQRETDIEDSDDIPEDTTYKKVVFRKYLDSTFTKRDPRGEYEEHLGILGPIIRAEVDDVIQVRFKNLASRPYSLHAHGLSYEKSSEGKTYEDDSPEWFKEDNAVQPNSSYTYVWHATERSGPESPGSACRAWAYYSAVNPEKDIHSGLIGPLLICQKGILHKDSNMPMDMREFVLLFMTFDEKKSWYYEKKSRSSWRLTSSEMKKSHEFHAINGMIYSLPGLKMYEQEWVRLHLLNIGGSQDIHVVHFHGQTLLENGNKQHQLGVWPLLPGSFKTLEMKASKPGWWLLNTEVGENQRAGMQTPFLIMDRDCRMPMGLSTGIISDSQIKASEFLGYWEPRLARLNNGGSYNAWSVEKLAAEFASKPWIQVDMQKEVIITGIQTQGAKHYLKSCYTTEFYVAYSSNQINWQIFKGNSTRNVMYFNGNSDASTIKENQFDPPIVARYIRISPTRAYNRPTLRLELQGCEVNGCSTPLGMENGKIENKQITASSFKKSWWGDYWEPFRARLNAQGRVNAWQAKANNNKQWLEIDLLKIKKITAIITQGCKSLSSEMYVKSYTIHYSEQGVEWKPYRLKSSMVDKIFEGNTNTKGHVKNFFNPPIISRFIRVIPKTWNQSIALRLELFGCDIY

COC(=O)[C@H](Cc1cccc(C(=N)N)c1)[C@@H](C)NC(=O)c1ccc(-c2cc[n+]([O-])cc2)cc1.O=C(O)c1ccccc1 [benzoic acid salt of methyl(2R,3R)-2-{3-[amino(imino)methyl]benzyl}-3-{[4-(1-oxidopyridin-4-yl)benzoyl]amino}butanoate]
Change In Mass (%) Desorption ([1]; Cycle 1, Target RH 0.0%): −0.035%
Change In Mass (%) Sorption ([1]; Cycle 1, Target RH 0.0%): 0.000%
Change In Mass (%) Desorption ([1]; Cycle 1, Target RH 10.0%): 0.215%
Change In Mass (%) Hysteresis ([1]; Cycle 1, Target RH 10.0%): 0.119%
Change In Mass (%) Sorption ([1]; Cycle 1, Target RH 10.0%): 0.096%
Change In Mass (%) Desorption ([1]; Cycle 1, Target RH 20.0%): 0.326%
Change In Mass (%) Hysteresis ([1]; Cycle 1, Target RH 20.0%): 0.146%
Change In Mass (%) Sorption ([1]; Cycle 1, Target RH 20.0%): 0.180%
Change In Mass (%) Desorption ([1]; Cycle 1, Target RH 40.0%): 0.534%
Change In Mass (%) Hysteresis ([1]; Cycle 1, Target RH 40.0%): 0.172%
Change In Mass (%) Sorption ([1]; Cycle 1, Target RH 40.0%): 0.363%
Change In Mass (%) Desorption ([1]; Cycle 1, Target RH 60.0%): 0.810%
Change In Mass (%) Hysteresis ([1]; Cycle 1, Target RH 60.0%): 0.214%
Change In Mass (%) Sorption ([1]; Cycle 1, Target RH 60.0%): 0.596%
Change In Mass (%) Desorption ([1]; Cycle 1, Target RH 80.0%): 1.300%
Change In Mass (%) Hysteresis ([1]; Cycle 1, Target RH 80.0%): 0.374%
Change In Mass (%) Sorption ([1]; Cycle 1, Target RH 80.0%): 0.926%
Change In Mass (%) Desorption ([1]; Cycle 1, Target RH 90.0%): 1.697%
Change In Mass (%) Hysteresis ([1]; Cycle 1, Target RH 90.0%): 0.290%
Change In Mass (%) Sorption ([1]; Cycle 1, Target RH 90.0%): 1.408%
Change In Mass (%) Desorption ([1]; Cycle 1, Target RH 95.0%): 2.031%
Change In Mass (%) Sorption ([1]; Cycle 1, Target RH 95.0%): 2.031%
Change In Mass (%) Desorption ([1]; Cycle 2, Target RH 0.0%): −0.056%
Change In Mass (%) Sorption ([1]; Cycle 2, Target RH 0.0%): −0.035%
Change In Mass (%) Desorption ([1]; Cycle 2, Target RH 10.0%): 0.198%
Change In Mass (%) Hysteresis ([1]; Cycle 2, Target RH 10.0%): 0.089%
Change In Mass (%) Sorption ([1]; Cycle 2, Target RH 10.0%): 0.109%
Change In Mass (%) Desorption ([1]; Cycle 2, Target RH 20.0%): 0.310%
Change In Mass (%) Hysteresis ([1]; Cycle 2, Target RH 20.0%): 0.084%
Change In Mass (%) Sorption ([1]; Cycle 2, Target RH 20.0%): 0.226%
Change In Mass (%) Desorption ([1]; Cycle 2, Target RH 40.0%): 0.523%
Change In Mass (%) Hysteresis ([1]; Cycle 2, Target RH 40.0%): 0.062%
Change In Mass (%) Sorption ([1]; Cycle 2, Target RH 40.0%): 0.461%
Change In Mass (%) Desorption ([1]; Cycle 2, Target RH 60.0%): 0.800%
Change In Mass (%) Hysteresis ([1]; Cycle 2, Target RH 60.0%): 0.058%
Change In Mass (%) Sorption ([1]; Cycle 2, Target RH 60.0%): 0.742%
Change In Mass (%) Desorption ([1]; Cycle 2, Target RH 80.0%): 1.299%
Change In Mass (%) Hysteresis ([1]; Cycle 2, Target RH 80.0%): 0.058%
Change In Mass (%) Sorption ([1]; Cycle 2, Target RH 80.0%): 1.241%
Change In Mass (%) Desorption ([1]; Cycle 2, Target RH 90.0%): 1.687%
Change In Mass (%) Hysteresis ([1]; Cycle 2, Target RH 90.0%): 0.071%
Change In Mass (%) Sorption ([1]; Cycle 2, Target RH 90.0%): 1.616%
Change In Mass (%) Desorption ([1]; Cycle 2, Target RH 95.0%): 1.999%
Change In Mass (%) Sorption ([1]; Cycle 2, Target RH 95.0%): 1.999%
water uptake (DVS) ([1]; at 80% RH): 1.1%
water uptake (DVS) ([1]; at 95% RH): 2.0%
hygroscopicity (absorption or adsorption of water molecules from the surrounding environment) [1]: favorable reduced absorption or adsorption of water molecules

COC(=O)[C@H](Cc1cccc(C(=N)N)c1)[C@@H](C)NC(=O)c1ccc(-c2cc[n+]([O-])cc2)cc1 (mixture of isomers) [Otamixaban, Methyl(2R,3R)-2-{3-[amino(imino)methyl]benzyl}-3-{[4-(1-oxidopyridin-4-yl)benzoyl]amino}butanoate]
inhibition of free factor Xa [2]: inhibited
inhibition of factor Xa assembled in the prothrombinase complex [3]: inhibited
efficacy in models of thrombosis [4]: highly efficacious
clinical efficacy [5]: efficacious
clinical safety and tolerability [5]: safe and well tolerated
reduction of prothrombin fragments 1+2 [6]: reduced prothrombin fragments 1+2 significantly more than unfractionated heparin
factor Xa inhibition in patients [7]: dose-dependent, rapid direct factor Xa inhibition

CCC(C)O.COC(=O)[C@H](Cc1cccc(C(=N)N)c1)[C@@H](C)NC(=O)c1ccc(-c2cc[n+]([O-])cc2)cc1.COC(=O)[C@H](Cc1cccc(C(=N)N)c1)[C@@H](C)NC(=O)c1ccc(-c2cc[n+]([O-])cc2)cc1.Cl.Cl [Methyl(2R,3R)-2-{3-[amino(imino)methyl]benzyl}-3-{[4-(1-oxidopyridin-4-yl)benzoyl]amino}butanoate monohydrochloride-hemi-2-butanol-solvate]
Change In Mass (%) Desorption ([1]; Cycle 1, Target RH 0.0%): 0.35%
Change In Mass (%) Sorption ([1]; Cycle 1, Target RH 0.0%): 0.00%
Change In Mass (%) Desorption ([1]; Cycle 1, Target RH 10.0%): 3.33%
Change In Mass (%) Hysteresis ([1]; Cycle 1, Target RH 10.0%): 2.54%
Change In Mass (%) Sorption ([1]; Cycle 1, Target RH 10.0%): 0.79%
Change In Mass (%) Desorption ([1]; Cycle 1, Target RH 20.0%): 5.29%
Change In Mass (%) Hysteresis ([1]; Cycle 1, Target RH 20.0%): 4.01%
Change In Mass (%) Sorption ([1]; Cycle 1, Target RH 20.0%): 1.28%
Change In Mass (%) Desorption ([1]; Cycle 1, Target RH 40.0%): 7.14%
Change In Mass (%) Hysteresis ([1]; Cycle 1, Target RH 40.0%): 4.91%
Change In Mass (%) Sorption ([1]; Cycle 1, Target RH 40.0%): 2.22%
Change In Mass (%) Desorption ([1]; Cycle 1, Target RH 60.0%): 9.78%
Change In Mass (%) Hysteresis ([1]; Cycle 1, Target RH 60.0%): 6.09%
Change In Mass (%) Sorption ([1]; Cycle 1, Target RH 60.0%): 3.69%
Change In Mass (%) Desorption ([1]; Cycle 1, Target RH 80.0%): 16.92%
Change In Mass (%) Hysteresis ([1]; Cycle 1, Target RH 80.0%): −0.87%
Change In Mass (%) Sorption ([1]; Cycle 1, Target RH 80.0%): 17.79%
Change In Mass (%) Desorption ([1]; Cycle 1, Target RH 90.0%): 26.07%
Change In Mass (%) Hysteresis ([1]; Cycle 1, Target RH 90.0%): −0.59%
Change In Mass (%) Sorption ([1]; Cycle 1, Target RH 90.0%): 26.66%
Change In Mass (%) Desorption ([1]; Cycle 1, Target RH 95.0%): 34.13%
Change In Mass (%) Sorption ([1]; Cycle 1, Target RH 95.0%): 34.13%
Change In Mass (%) Desorption ([1]; Cycle 2, Target RH 0.0%): 0.34%
Change In Mass (%) Sorption ([1]; Cycle 2, Target RH 0.0%): 0.35%
Change In Mass (%) Desorption ([1]; Cycle 2, Target RH 10.0%): 3.17%
Change In Mass (%) Hysteresis ([1]; Cycle 2, Target RH 10.0%): 2.48%
Change In Mass (%) Sorption ([1]; Cycle 2, Target RH 10.0%): 0.69%
Change In Mass (%) Desorption ([1]; Cycle 2, Target RH 20.0%): 4.97%
Change In Mass (%) Hysteresis ([1]; Cycle 2, Target RH 20.0%): 3.65%
Change In Mass (%) Sorption ([1]; Cycle 2, Target RH 20.0%): 1.32%
Change In Mass (%) Desorption ([1]; Cycle 2, Target RH 40.0%): 6.78%
Change In Mass (%) Hysteresis ([1]; Cycle 2, Target RH 40.0%): 4.11%
Change In Mass (%) Sorption ([1]; Cycle 2, Target RH 40.0%): 2.67%
Change In Mass (%) Desorption ([1]; Cycle 2, Target RH 60.0%): 9.41%
Change In Mass (%) Hysteresis ([1]; Cycle 2, Target RH 60.0%): 4.84%
Change In Mass (%) Sorption ([1]; Cycle 2, Target RH 60.0%): 4.57%
Change In Mass (%) Desorption ([1]; Cycle 2, Target RH 80.0%): 16.37%
Change In Mass (%) Hysteresis ([1]; Cycle 2, Target RH 80.0%): 2.94%
Change In Mass (%) Sorption ([1]; Cycle 2, Target RH 80.0%): 13.43%
Change In Mass (%) Desorption ([1]; Cycle 2, Target RH 90.0%): 25.32%
Change In Mass (%) Hysteresis ([1]; Cycle 2, Target RH 90.0%): 1.41%
Change In Mass (%) Sorption ([1]; Cycle 2, Target RH 90.0%): 23.91%
Change In Mass (%) Desorption ([1]; Cycle 2, Target RH 95.0%): 32.86%
Change In Mass (%) Sorption ([1]; Cycle 2, Target RH 95.0%): 32.86%
hygroscopicity (absorption or adsorption of water molecules from the surrounding environment) [1]: hygroscopic

From US8993602B2, “Benzoic acid salt of otamixaban” (Sanofi, priority 2011, dated 2015)
